Assay results from patent publication US20190365951A1, “HUMAN CARDIAC TISSUE CONSTRUCT, RELATED METHODS AND USES” (FUNDACIÓ INSTITUTE DE BIOENGINYERIA DE CATALUNYA (IBEC), priority 2018, published 2019).

How the values were obtained:
[1] = molecular target: hERG ion channels (Homo sapiens, UniProt Q12809); settings: HEK293, CHO; Mathur, A. et al, 2015; cited from earlier work
[2] = system: CardioSlice constructs
Procedure: All chemicals were dissolved in distilled water to make stock solutions, and serial dilutions were made in RPMI (Invitrogen) culture medium. To test changes in the β-adrenergic response, 1 μM isoproterenol was injected to the bioreactor circuit through the luer injection port (Inycom). For cholinergic stimulation, 10 μM carbachol was injected, and sotalol was added at 10 μM to evaluate the blockade of hERG current (Braam, S. R. et al, 2013). Spontaneous activity of cardiac constructs was recorded as baseline period. Cardiac constructs were treated with pharmacological agents during 10 min for immediate analysis, followed by 5 min washout for isoproterenol and carbachol, and 15 min for sotalol.
Electrocardiogram (ECG)-like signals were acquired through the three electrodes configuration built in the custom-made cell culture chamber and using an advanced transducer amplifier. The gold electrode acted as internal reference, and electrical activity of cardiac macrotissues was acquired using the gold and graphite electrodes. In particular, “Amplifier I” acquires activity between: “Graphite+ and Reference”; and “Amplifier II” acquires activity between: “Graphite+ and Graphite−” (FIG. 8). The obtained ECG-like signal is generated by the sum of the synchronized action potentials of all cardiomyocytes. Its shape is similar to regular surface ECG signals for humans, including the presence of the QRS complex and T wave (FIG. 4a). […] ECG-like signal recordings were monitored and stored in a computer using the AcqKnowledge software v.4.1 (BIOPAC, Santa Barbara, Calif., USA), and were analyzed with MATLAB (v. R2014b, Natick, Mass., USA). ECG-like signals were recorded at a sampling frequency of 12.5 kHz, and were filtered and decimated at a sampling rate of 500 Hz.
Recorded ECG-like signals were bandpass filtered (zero-phase fourth-order Butterworth filter with cut-off frequencies of 0.2 and 125 Hz), to use the main bandwidth of the classical electrocardiographic studies. […] Beat-to-beat fiducial points were detected and then signal averaging techniques were applied to estimate the main pattern of each ECG-like signal, enabling analysis and interpretation of QRS complex, T wave and QT interval (FIG. 4a and FIG. 5c).
During the experiments involving drug treatment, instantaneous beat rate expressed as beats per minute (bpm) was calculated over ECG-like signals, generated in both control and CardioSlice constructs at baseline and after drug application. Beat rate was assessed by measuring the RR interval, which is the time elapsing between two consecutive R waves in the electrocardiogram. Relative beat rate to baseline was calculated to evaluate the behavior of cardioactive drug effects.

[3] = system: CardioSlice constructs; experiment: Chronotropic/contractile response by video area-oscillation analysis (custom MATLAB program); type: cell-based, human
Procedure: FIG. 11. Chronotropic responses of human cardiac macrotissues to the proarrhythmic drug sotalol. Changes in the beat rate were analyzed through custom MATLAB program at different incubation times (from 0 min to 40 min). The area in pixels of each construct was obtained, and its oscillation was represented over time (relative to the highest number of pixels recorded). (a) Sotalol effects on non-stimulated cardiac constructs (Control). (b) Sotalol effects on electrically stimulated cardiac constructs (CardioSlice).
Contractile function of cardiac macrotissues in spontaneous beating and in response to electric field stimulation was assessed in a set-up equivalent to one previously described (Tandon, N. et al, 2009; Tandon, N. et al, 2011). […] The space between the electrodes was filled with Tyrode's salts solution (Sigma-Aldrich Quimica), and cardiac macrotissues were imaged and video recorded using a Stereo Microscope Leica MZ10F (Leica Microsystems) with a DFC4025C Digital Microscope Camera (Leica Microsystems). […] To measure the amplitude of contraction of each cardiac macrotissue, spontaneous beating of the constructs was recorded for at least 10 s. Then, the Fractional Area Change (FAC) of 10 beats was calculated using a custom MATLAB program (v. R2014b, Natick, Mass., USA) as previously described (Tandon, N. et al., 2009). […]

[4] = system: Control constructs (non-stimulated human cardiac macrotissues); experiment: ECG-like signal recording of non-stimulated human cardiac macrotissues under drug treatment; type: cell-based; settings: 10 μM sotalol, 10 min treatment, day 14 of culture
Excerpt: Isoproterenol, carbachol and sotalol were purchased from Sigma-Aldrich.

hERG ion channels, sequence (Q12809 whole entry): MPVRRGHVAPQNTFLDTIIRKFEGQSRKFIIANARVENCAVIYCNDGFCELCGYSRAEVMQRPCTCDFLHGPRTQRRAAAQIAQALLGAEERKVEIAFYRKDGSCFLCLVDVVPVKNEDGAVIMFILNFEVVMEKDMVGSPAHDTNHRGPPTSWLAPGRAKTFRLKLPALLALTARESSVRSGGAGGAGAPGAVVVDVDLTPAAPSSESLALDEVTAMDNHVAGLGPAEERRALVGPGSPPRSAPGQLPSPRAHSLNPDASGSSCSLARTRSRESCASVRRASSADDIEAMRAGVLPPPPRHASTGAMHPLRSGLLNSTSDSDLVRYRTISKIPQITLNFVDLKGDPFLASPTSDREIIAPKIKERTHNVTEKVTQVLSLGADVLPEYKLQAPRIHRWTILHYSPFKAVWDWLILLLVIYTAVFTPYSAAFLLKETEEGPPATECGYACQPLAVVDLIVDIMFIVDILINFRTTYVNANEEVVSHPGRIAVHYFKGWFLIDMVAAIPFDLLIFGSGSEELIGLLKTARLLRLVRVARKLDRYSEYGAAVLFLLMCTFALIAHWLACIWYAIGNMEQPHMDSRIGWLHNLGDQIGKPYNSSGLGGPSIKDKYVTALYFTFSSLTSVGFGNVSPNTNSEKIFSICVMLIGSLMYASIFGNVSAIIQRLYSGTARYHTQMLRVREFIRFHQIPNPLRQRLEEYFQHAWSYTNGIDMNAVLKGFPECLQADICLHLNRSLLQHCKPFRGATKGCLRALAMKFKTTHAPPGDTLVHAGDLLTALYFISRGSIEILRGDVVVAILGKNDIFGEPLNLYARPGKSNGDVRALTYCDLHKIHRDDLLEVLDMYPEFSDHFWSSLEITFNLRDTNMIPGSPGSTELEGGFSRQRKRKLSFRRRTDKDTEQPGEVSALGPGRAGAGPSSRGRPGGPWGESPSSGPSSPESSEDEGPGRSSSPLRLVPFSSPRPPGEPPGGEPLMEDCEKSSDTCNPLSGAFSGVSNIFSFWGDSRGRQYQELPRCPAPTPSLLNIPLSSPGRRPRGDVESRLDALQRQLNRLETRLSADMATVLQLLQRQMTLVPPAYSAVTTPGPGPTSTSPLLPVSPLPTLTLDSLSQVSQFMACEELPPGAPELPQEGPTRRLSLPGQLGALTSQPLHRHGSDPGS

Structure (SMILES): COc1cc2nc(N(C)CCCNC(=O)C3CCCO3)nc(N)c2cc1OC (stereo not drawn) [alfuzosin]
- outcome of hERG safety assay versus actual cardiac safety [1]: false negatives

Structure (SMILES): C[N+](C)(C)CCOC(N)=O [carbachol]
- beating frequency ([2]; 10 μM carbachol, 10 min incubation, relative to baseline): statistically significant decrease

Structure (SMILES): CC(C)NCC(O)c1ccc(O)c(O)c1 (stereo not drawn) [isoproterenol]
- RR intervals ([2]; 1 μM isoproterenol, 10 min incubation): decreased
- beating rate ([2]; 1 μM isoproterenol, 10 min incubation, relative to baseline): statistically significant increment

Structure (SMILES): CC(C)NCC(O)c1ccc(NS(C)(=O)=O)cc1 (stereo not drawn) [sotalol]
- chronotropic response (beat rate changes) ([3]; sotalol, incubation times from 0 min to 40 min): a negative chronotropic effect can be observed, followed by a progressive emergence of cardiac arrhythmias
- contractile patterns (mechanical level) ([3]; sotalol-treated CardioSlice constructs): dyssynchronous contractile patterns
- beating frequency [4]: random increases and decreases
- morphology of ECG-like signals [4]: no alteration
- increase of the QT interval (prolongation) ([2]; human, 10 μM): greater than 20%
